US6576593B2, “Synergistic herbicidal compositions comprising herbicides from the benzoylcyclohexanedione group for use in maize corps” (Aventis CropScience GmbH, priority 2001, dated 2003)

Key:
[1] = test system: Avena fatua (AVENA); assay: Herbicidal activity of A5, herbicides (B) and their combinations, visual scoring, against AVEFA; format: in vivo
Method: (§1) The herbicidal efficacy of the active ingredients or active ingredient mixtures was scored visually by comparing the treated plots with untreated control plots. The damage and development of all aerial plant parts was recorded. […] The score figures of in each case 4 plots were averaged. Maize plants were grown in the open on plots of from 5 to 10 m^2 in size on different soils and under various climatic conditions, the natural presence of harmful plants or seeds thereof in the soil being exploited for the experiments. […] The active ingredient or active ingredient combinations were applied post-emergence as WG, WP or EC formulations. After 2 to 8 weeks, the plants were scored visually in comparison with an untreated comparison group. […] Moreover, the herbicidal activities of the compositions according to the invention exceed the expected values calculated using Colby's formula. In contrast, the maize plants were left unharmed or virtually unharmed as a consequence of the treatment. When applying the combinations according to the invention, herbicidal effects are frequently observed on a harmful plant species which exceed the formal total of the effects of the herbicides present when these are applied by themselves. Alternatively, it is observed in some cases that a lower application rate is required for the herbicide combination in order to achieve the same effect on a harmful plant species in comparison with the individual products. […] The biological examples listed in the tables hereinbelow relate to the herbicidal activity of combinations according to the invention of the following herbicides against the harmful plants Ipomea laputifolia (IPOMEA) and Avena fatua (AVENA): […]

[2] = test system: Ipomea laputifolia (IPOMEA); assay: Herbicidal activity of A5, herbicides (B) and their combinations, visual scoring, against IPOMEA; format: in vivo
Method: as §1

CC(C)N(C(=O)COc1nnc(C(F)(F)F)s1)c1ccc(F)cc1 [Compound B1.4, flufenacet]
pest or weed control at 373 g/ha ([1]; Avena fatua, Dosage 373 g ai/ha, read-out: Activity against AVEFA found): 50%
pest or weed control at 373 g/ha ([2]; Dosage 373 g ai/ha, read-out: Activity against IPOMEA found): 25%

CCc1cccc(C)c1N(C(=O)CCl)C(C)COC (stereo not drawn) [Compound B1.5, metolachlor]
pest or weed control at 960 g/ha ([1]; Avena fatua, Dosage 960 g ai/ha, read-out: Activity against AVEFA found): 20%
pest or weed control at 960 g/ha ([2]; Dosage 960 g ai/ha, read-out: Activity against IPOMEA found): 13%

CCNc1nc(Cl)nc(NC(C)C)n1 [Compound B2.1, atrazine]
pest or weed control at 540 g/ha ([1]; Avena fatua, Dosage 540 g ai/ha, read-out: Activity against AVEFA found): 50%
pest or weed control at 540 g/ha ([2]; Dosage 540 g ai/ha, read-out: Activity against IPOMEA found): 25%

N#Cc1cc(Br)c(O)c(Br)c1 [Compound B2.2, bromoxynil]
pest or weed control at 140 g/ha ([1]; Avena fatua, Dosage 140 g ai/ha, read-out: Activity against AVEFA found): 20%
pest or weed control at 140 g/ha ([2]; Dosage 140 g ai/ha, read-out: Activity against IPOMEA found): 25%

COc1c(Cl)ccc(Cl)c1C(=O)O [Compound B4.1, dicamba]
pest or weed control at 80 g/ha ([1]; Avena fatua, Dosage 80 g ai/ha, read-out: Activity against AVEFA found): 10%
pest or weed control at 80 g/ha ([2]; Dosage 80 g ai/ha, read-out: Activity against IPOMEA found): 25%

CCc1cnc(C2=NC(C)(C(C)C)C(=O)N2)c(C(=O)O)c1 (stereo not drawn) [Compound B5.6, imazethapyr]
pest or weed control at 30 g/ha ([1]; Avena fatua, Dosage 30 g ai/ha, read-out: Activity against AVEFA found): 10%
pest or weed control at 30 g/ha ([2]; Dosage 30 g ai/ha, read-out: Activity against IPOMEA found): 25%

COC(=O)c1ccc(I)cc1S(=O)(=O)[N-]C(=O)Nc1nc(C)nc(OC)n1.[Na+] [Compound B5.7, iodosulfuron-methyl-sodium]
Activity against AVEFA found ([1]; Dosage 1 g ai/ha): 30%
Activity against IPOMEA found ([2]; Dosage 1 g ai/ha): 20%

COc1cc(OC)nc(NC(=O)NS(=O)(=O)c2ncccc2C(=O)N(C)C)n1 [Compound B5.9, nicosulfuron]
pest or weed control at 15 g/ha ([1]; Avena fatua, Dosage 15 g ai/ha, read-out: Activity against AVEFA found): 40%
pest or weed control at 15 g/ha ([2]; Dosage 15 g ai/ha, read-out: Activity against IPOMEA found): 20%

CCC(CC)Nc1c([N+](=O)[O-])cc(C)c(C)c1[N+](=O)[O-] [Compound B7.1, pendimethalin]
pest or weed control at 840 g/ha ([1]; Avena fatua, Dosage 840 g ai/ha, read-out: Activity against AVEFA found): 10%
pest or weed control at 840 g/ha ([2]; Dosage 840 g ai/ha, read-out: Activity against IPOMEA found): 40%
